The assay deals with potassium ion channel current of the DRG neurons. Briefly: cells. The assay is classed as cell-based, SD rats.

With `Nc1ccncc1` [4AP, 4-aminopyridine], the “Current recorded after loading” value (5 mM) was found to be 0.9766 nA. For the same compound, the inhibition (commonly the change of the read-out against control, counted positive when it falls) at 5000 µM (Rattus norvegicus, DRG neuron, read-out: Current inhibition rate) came to 33.8%.

Source of the values: patent US10087216B2 (priority 2014, dated 2018).
